Laboratory results reported in US20150011541A1, “PIPECOLATE-SULFONAMIDES FOR TREATMENT OF PSYCHIATRIC DISORDERS” (Max-Planck-Gesellschaft zur Förderung der Wissenschaften …, priority 2011, published 2015).
Read-outs that look alike come from different tables or passages of the source.

What was measured:
[1] = target: T1, human FKBP52FK1 (Homo sapiens, UniProt Q02790); experiment: Fluorescence polarization assay, binding to FK1 domain of FKBP52; conditions: for inhibition at 5 µM: read-out: FKBP52 FK1 % inhibition; for IC50: binding affinity, fluorescence polarization assay
T1 sequence (Q02790 50-138 limits assumed): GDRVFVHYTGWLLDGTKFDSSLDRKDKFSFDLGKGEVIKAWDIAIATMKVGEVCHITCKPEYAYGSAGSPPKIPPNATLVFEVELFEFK

[2] = target: T2, human FKBP51FK1 (Homo sapiens, UniProt Q13451); experiment: Fluorescence polarization assay, binding to FK1 domain of FKBP51; conditions: for inhibition at 5 µM: read-out: FKBP 51 FK1 % inhibition; for IC50: binding affinity, fluorescence polarization assay
T2 sequence (Q13451 42-130 limits assumed): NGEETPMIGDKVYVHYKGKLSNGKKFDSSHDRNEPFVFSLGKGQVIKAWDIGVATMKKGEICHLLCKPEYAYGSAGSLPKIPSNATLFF

[3] = at a concentration of 5 μM, library testing

inhibition at 5 µM [1, 3] [%]	inhibition at 5 µM [2, 3] [%]	Structure (SMILES)	further results
6.6	5.5	COc1ccc(CC[C@@H](OC(=O)[C@@H]2CCCCN2S(=O)(=O)c2cc3ccccc3o2)c2cccc(OCC(=O)O)c2)cc1OC [Compound 54, 2-(3-((R)-1-((S)-1-(benzofuran-2-ylsulfonyl)piperidine-2-carbonyloxy)-3-(3,4-dimethoxyphenyl)propyl)phenoxy)acetic acid]	–
8.5	3.2	COc1ccc(CC[C@@H](OC(=O)[C@@H]2CCCCN2S(=O)(=O)c2cccs2)c2cccc(OCC(=O)O)c2)cc1OC [Compound 55, 2-(3-((R)-3-(3,4-dimethoxyphenyl)-1-((S)-1-(thiophen-2-ylsulfonyl)piperidine-2-carbonyloxy)propyl)phenoxy)acetic acid]	–
9.5	3.2	COc1ccc(CC[C@@H](OC(=O)[C@@H]2CCCCN2S(=O)(=O)c2ccc(-c3ccccc3)s2)c2cccc(OCC(=O)O)c2)cc1OC [Compound 56, 2-(3-((R)-3-(3,4-dimethoxyphenyl)-1-((S)-1-(5-phenylthiophen-2-ylsulfonyl)piperidine-2-carbonyloxy)propyl)phenoxy)acetic acid]	–
4.7	3.2	COc1ccc(CC[C@@H](OC(=O)[C@@H]2CCCCN2S(=O)(=O)c2csc3ccccc23)c2cccc(OCC(=O)O)c2)cc1OC [Compound 57, 2-(3-((R)-1-((S)-1-(benzo[b]thiophen-3-ylsulfonyl)piperidine-2-carbonyloxy)-3-(3,4-dimethoxyphenyl)propyl)phenoxy)acetic acid]	–
1.9	5.5	COc1ccc(CC[C@@H](OC(=O)[C@@H]2CCCCN2S(=O)(=O)c2c(C)nn(C)c2C)c2cccc(OCC(=O)O)c2)cc1OC [Compound 61, 2-(3-((R)-3-(3,4-dimethoxyphenyl)-1-((S)-1-(1,3,5-trimethyl-1H-pyrazol-4-ylsulfonyl)piperidine-2-carbonyloxy)propyl)phenoxy)acetic acid]	–
4.7	0.9	COc1ccc(CC[C@@H](OC(=O)[C@@H]2CCCCN2S(=O)(=O)c2c(C)nn(-c3ccccc3)c2C)c2cccc(OCC(=O)O)c2)cc1OC [Compound 62, 2-(3-((R)-3-(3,4-dimethoxyphenyl)-1-((S)-1-(3,5-dimethyl-1-phenyl-1H-pyrazol-4-ylsulfonyl)piperidine-2-carbonyloxy)propyl)phenoxy)acetic acid]	–

The remaining lines, values behind:

Structure (SMILES)	inhibition at 5 µM [1, 3] [%]	inhibition at 5 µM [2, 3] [%]	further results
COc1ccc(CC[C@@H](OC(=O)[C@@H]2CCCCN2S(=O)(=O)c2ccccc2Cl)c2cccc(OCC(=O)O)c2)cc1OC [Compound 45, 2-(3-((R)-1-((S)-1-(2-chlorophenylsulfonyl)piperidine-2-carbonyloxy)-3-(3,4-dimethoxyphenyl)propyl)phenoxy)acetic acid]	9.5	1.4	–
COc1ccc(CC[C@@H](OC(=O)[C@@H]2CCCCN2S(=O)(=O)c2c(Cl)cccc2Cl)c2cccc(OCC(=O)O)c2)cc1OC [Compound 46, 2-(3-((R)-1-((S)-1-(2,6-dichlorophenylsulfonyl)piperidine-2-carbonyloxy)-3-(3,4-dimethoxyphenyl)propyl)phenoxy)acetic acid]	9.5	3.2	–
COc1ccc(CC[C@@H](OC(=O)[C@@H]2CCCCN2S(=O)(=O)c2cccc(-c3nnc(C)o3)c2)c2cccc(OCC(=O)O)c2)cc1OC [Compound 47, 2-(3-((R)-3-(3,4-dimethoxyphenyl)-1-((S)-1-(3-(5-methyl-1,3,4-oxadiazol-2-yl)phenylsulfonyl)piperidine-2-carbonyloxy)propyl)phenoxy)acetic acid]	3.8	4.9	–
COc1ccc(CC[C@@H](OC(=O)[C@@H]2CCCCN2S(=O)(=O)c2ccc(C(F)(F)F)c(Cl)c2)c2cccc(OCC(=O)O)c2)cc1OC [Compound 48, 2-(3-((R)-1-((S)-1-(3-chloro-4-(trifluoromethyl)phenylsulfonyl)piperidine-2-carbonyloxy)-3-(3,4-dimethoxyphenyl)propyl)phenoxy)acetic acid]	11.4	-0.2	–
COc1ccc(CC[C@@H](OC(=O)[C@@H]2CCCCN2S(=O)(=O)c2cccc3c2ccn3C)c2cccc(OCC(=O)O)c2)cc1OC [Compound 49, 2-(3-((R)-3-(3,4-dimethoxyphenyl)-1-((S)-1-(1-methyl-1H-indol-4-ylsulfonyl)piperidine-2-carbonyloxy)propyl)phenoxy)acetic acid]	6.6	-0.8	–
COc1ccc(CC[C@@H](OC(=O)[C@@H]2CCCCN2S(=O)(=O)c2ccc3c(ccn3C)c2)c2cccc(OCC(=O)O)c2)cc1OC [Compound 50, 2-(3-((R)-3-(3,4-dimethoxyphenyl)-1-((S)-1-(1-methyl-1H-indol-5-ylsulfonyl)piperidine-2-carbonyloxy)propyl)phenoxy)acetic acid]	10.4	10	–
COc1ccc(CC[C@@H](OC(=O)[C@@H]2CCCCN2S(=O)(=O)c2ccc3c(c2)N(C)CCO3)c2cccc(OCC(=O)O)c2)cc1OC [Compound 51, 2-(3-((R)-3-(3,4-dimethoxyphenyl)-1-((S)-1-(4-methyl-3,4-dihydro-2H-benzo[b][1,4]oxazin-6-ylsulfonyl)piperidine-2-carbonyloxy)propyl)phenoxy)acetic acid]	6.6	9.5	–
COc1ccc(CC[C@@H](OC(=O)[C@@H]2CCCCN2S(=O)(=O)c2ccoc2)c2cccc(OCC(=O)O)c2)cc1OC [Compound 53, 2-(3-((R)-3-(3,4-dimethoxyphenyl)-1-((S)-1-(furan-3-ylsulfonyl)piperidine-2-carbonyloxy)propyl)phenoxy)acetic acid]	5.7	–	inhibition at 5 µM [2]: 2%
COc1ccc(CC[C@@H](OC(=O)[C@@H]2CCCCN2S(=O)(=O)c2ccc(C)cc2)c2cccc(OCC(=O)O)c2)cc1OC [Compound 63, 2-(3-((R)-3-(3,4-dimethoxyphenyl)-1-((S)-1-tosylpiperidine-2-carbonyloxy)propyl)phenoxy)acetic acid]	–	–	inhibition at 5 µM [1]: 3.8%; inhibition at 5 µM [2]: 3.2%
CCOC(=O)C1CCCCN1S(=O)(=O)Cc1ccccc1 (centres unmarked) [Ref. 1, Ethyl 1-(benzylsulfonyl)piperidine-2-carboxylate, reference compound]	–	–	IC50 [1]: > 100 µM; IC50 [2]: > 100 µM
CCOC(=O)C1CCCCN1S(=O)(=O)c1cccc([N+](=O)[O-])c1 (centres unmarked) [Ref. 2, Ethyl 1-(3-nitrophenylsulfonyl)piperidine-2-carboxylate, reference compound]	–	–	IC50 [1]: > 100 µM; IC50 [2]: > 100 µM
COc1ccc(CCCOC(=O)C2CCCCN2S(=O)(=O)Cc2ccccc2)cc1OC (centres unmarked) [Ref. 3, 3-(3,4-dimethoxyphenyl)propyl 1-(benzylsulfonyl)piperidine-2-carboxylate, reference compound]	–	–	IC50 [1]: > 100 µM; IC50 [2]: > 100 µM
O=C(OCCCc1cccnc1)C1CCCCN1S(=O)(=O)c1cccc([N+](=O)[O-])c1 (centres unmarked) [Ref. 4, 3-(pyridin-3-yl)propyl 1-(3-nitrophenylsulfonyl)piperidine-2-carboxylate, reference compound]	–	–	IC50 [1]: > 100 µM; IC50 [2]: > 100 µM
